Reference: PubChem BioAssay AID504687 (Sanford-Burnham Center for Chemical Genomics, 2011)
Calls of active or inactive are those of the source. How the calls were made is not given here.

Each compound was assayed against Ubiquitin-conjugating enzyme E2 N (Homo sapiens) (UniProt P61088) (assay: UBC13 polyubiquitin chain formation inhibitors, SAR follow-up, biochemical, TR-FRET (AID 504687)).
Ubiquitin-conjugating enzyme E2 N (Homo sapiens), sequence (P61088 whole entry, looked up): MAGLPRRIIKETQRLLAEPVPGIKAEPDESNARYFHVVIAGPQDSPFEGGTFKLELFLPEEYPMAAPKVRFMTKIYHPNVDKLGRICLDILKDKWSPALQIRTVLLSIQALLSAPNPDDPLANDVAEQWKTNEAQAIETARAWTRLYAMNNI

| IC50 | SMILES |
| --- | --- |
| 4.3 µM | CCOc1cccc2sc(N(CCCN(C)C)C(=O)c3ccc(S(=O)(=O)N(C)Cc4ccccc4)cc3)nc12 |
| 9.47 µM | CC(C)(C)c1ccc(OCC(O)CN2CCN(CCN3C(=O)c4cccc5cccc(c45)C3=O)CC2)cc1 (stereo unspecified) |
| > 100 µM (inactive) | COc1ccccc1NC(=S)NC(=O)CCCCCN1C(=O)c2ccccc2C1=O |
| 2.36 µM | COc1ccc(C(=O)Nn2c(C)nc3ccccc3c2=O)cc1 |
| 11.7 µM | C=CCc1ccccc1OCC(O)CN1CCN(CCN2C(=O)c3cccc4cccc(c34)C2=O)CC1 (stereo unspecified) |
| 15 µM | Cc1nc2ccccc2c(=O)n1NC(=O)c1ccc(OC(F)F)cc1 |
| 1.69 µM | Cc1cccc(C)c1NC(=O)Cn1c(=O)n(CCCC(=O)NC2CCN(Cc3ccccc3)CC2)c(=O)c2ccccc21 |
| 1.07 µM | O=C1c2cccc3cccc(c23)C(=O)N1CCN1CCN(CC(O)COCc2ccc(Cl)cc2)CC1 (stereo unspecified) |
| 6.45 µM | O=C(C1CCN(c2ncnc3c2nc2n3CCCCC2)CC1)N1CCN(Cc2ccccc2)CC1 |
| 2.12 µM | CN(C)CCCN(C(=O)c1ccc(S(=O)(=O)N2CCCCCC2)cc1)c1nc2cc3c(cc2s1)OCCO3 |
| 6.37 µM | CNCc1cc(Br)c(OCC(=O)Nc2ccccc2OC)c(OC)c1 |
| > 100 µM (inactive) | COC(=O)C1=C(NC(=O)CCCCCN2C(=O)c3ccccc3C2=O)SC2CCCC12 (stereo unspecified) |
| 4.76 µM | Cc1cccc(OCC(O)CN2CCN(CCN3C(=O)c4cccc5cccc(c45)C3=O)CC2)c1C (stereo unspecified) |
| 0.45 µM | O=C(CCCn1c(=O)c2ccccc2n(Cc2ccccc2F)c1=O)NC1CCN(Cc2ccccc2)CC1 |
| 10.5 µM | Cc1ccc2nc(N(CCCN(C)C)C(=O)c3ccc4c(c3)CCCC4)sc2c1 |
| > 100 µM (inactive) | CCCOC(=O)c1ccc(NC(=O)CCCCCN2C(=O)c3ccccc3C2=O)cc1 |
| 1.6 µM | CN(C)CCCN(C(=O)c1ccc(C(=O)c2ccccc2)cc1)c1nc2cc3c(cc2s1)OCCO3 |
| 6.08 µM | O=C(Nc1ccc(F)c(Cl)c1)C1CCN(c2ncnc3c2nc2n3CCCCC2)CC1 |
| 0.79 µM | COc1ccc(OC)c2sc(N(CCCN(C)C)C(=O)c3ccc(S(=O)(=O)N4CCc5ccccc5C4)cc3)nc12 |
| 3.62 µM | Cc1ccc(NC(=O)C2CCN(c3ncnc4c3nc3n4CCCCC3)CC2)cc1Cl |
| 15 µM | O=C(C1CCN(c2ncnc3c2nc2n3CCCCC2)CC1)N1CCC(Cc2ccccc2)CC1 |
| 3.57 µM | O=C1c2cccc3cccc(c23)N1Cc1ccc(F)cc1 |

| IC50 | SMILES |
| --- | --- |
| > 100 µM (inactive) | O=C(CCCCCN1C(=O)c2ccccc2C1=O)Nc1nc(C2CC2)cs1 |
| 5.92 µM | CN(C)CCCN(C(=O)c1ccc(S(=O)(=O)N2CCCCCC2)cc1)c1nc2ccc(Br)cc2s1 |
| 18.1 µM | O=C(CCCCCN1C(=O)c2ccccc2C1=O)NCc1ccco1 |
| 4.61 µM | COC(=O)c1ccc(OCC(O)CN2CCN(CCN3C(=O)c4cccc5cccc(c45)C3=O)CC2)cc1 (stereo unspecified) |
| > 100 µM (inactive) | Cc1ccccc1NC(=S)NC(=O)CCCCCN1C(=O)c2ccccc2C1=O |
| inactive | O=C(CCCCCN1C(=O)c2ccccc2C1=O)NCc1ccccn1 |
| > 100 µM (inactive) | COc1cccc(NC(=O)CCCCCN2C(=O)c3cccc([N+](=O)[O-])c3C2=O)c1 |
| 4.58 µM | O=C(NCCCN1CCCCC1)C1CCN(c2ncnc3c2nc2n3CCCCC2)CC1 |
| 0.67 µM | Cc1[nH]c2c(Cl)c(Cl)ccc2c1CCNC(=O)CCCCCN1C(=O)c2ccccc2C1=O |
| 3.42 µM | Cc1ccc(C)c(CN2CCC(CNC(=O)C3CCCN(c4ncnc5c4nc4n5CCCCC4)C3)CC2)c1 (stereo unspecified) |
| 8.76 µM | CCc1ccc(OCC(O)CN2CCC(CN3C(=O)c4cccc5cccc(c45)C3=O)CC2)cc1 (stereo unspecified) |
| > 100 µM (inactive) | COCCOC(=O)c1ccc(NC(=O)CCCCCN2C(=O)c3ccccc3C2=O)cc1 |
| 1.51 µM | Cc1cc(C)c2sc(N(CCCN(C)C)C(=O)c3ccc(S(=O)(=O)N(C)Cc4ccccc4)cc3)nc2c1 |
| 4.33 µM | CN1CCN(CCCNC(=O)c2ccc(/C=C3\Oc4ccccc4N(Cc4ccc(Cl)cc4)C3=O)cc2)CC1 |
| inactive | CC1CN(S(=O)(=O)c2ccc(NC(=O)CCCCCN3C(=O)c4ccccc4C3=O)cc2)CC(C)O1 (stereo unspecified) |
| 4.75 µM | Cc1ccc(OCC(O)CN2CCN(CCN3C(=O)c4cccc5cccc(c45)C3=O)CC2)c(C)c1 (stereo unspecified) |
| 3.5 µM | COc1cc(/C=C/c2cc[n+](C)cc2)ccc1OCC(=O)Nc1ccc(Cl)c(Cl)c1 |
| 17.6 µM | O=C1c2cccc3cccc(c23)C(=O)N1CCN1CCN(CC(O)COc2ccccc2)CC1 (stereo unspecified) |
| inactive | O=C(C1CCN(c2ncnc3c2nc2n3CCCCC2)CC1)N1CCN(c2ccccn2)CC1 |
| 2.28 µM | Cc1cc(C)c2sc(N(CCCN(C)C)C(=O)c3ccc(S(=O)(=O)N4CCc5ccccc5C4)cc3)nc2c1 |
| 6.56 µM | CCOc1cccc2sc(N(CCCN(C)C)C(=O)c3ccc(S(=O)(=O)N(CC)Cc4ccccc4)cc3)nc12 |
| 10.7 µM | O=C(NCC1CCN(Cc2ccccc2F)CC1)C1CCCN(c2ncnc3c2nc2n3CCCCC2)C1 (stereo unspecified) |

| IC50 | SMILES |
| --- | --- |
| > 100 µM (inactive) | Cc1cc(NS(=O)(=O)c2ccc(NC(=O)CCCCCN3C(=O)c4ccccc4C3=O)cc2)nc(C)n1 |
| inactive | CCCCOC(=O)c1cccc(NC(=O)CCCCCN2C(=O)c3ccccc3C2=O)c1 |
| 7.28 µM | CCC1CCCCN1CCCNC(=O)C1CCN(c2ncnc3c2nc2n3CCCCC2)CC1 (stereo unspecified) |
| 6.23 µM | CCCCN(CC)S(=O)(=O)c1ccc(C(=O)N(CCCN(C)C)c2nc3cc(C)cc(C)c3s2)cc1 |
| 1.66 µM | CC1(C)Cc2c(sc(NC(=O)COc3ccc(Cl)cc3Cl)c2C(N)=O)C(C)(C)N1 |
| 0.47 µM | O=C(CCCCCN1C(=O)c2ccccc2C1=O)Nc1ccc(S(=O)(=O)N2CCCCC2)cc1 |
| 6.02 µM | O=C1c2cccc3cccc(c23)C(=O)N1CCN1CCN(CC(O)COc2ccc(C3CCCCC3)cc2)CC1 (stereo unspecified) |
| 4.47 µM | CCN(Cc1ccccc1)S(=O)(=O)c1ccc(C(=O)N(CCCN(C)C)c2nc3cc4c(cc3s2)OCO4)cc1 |
| 5.46 µM | Cc1ccc(C)c(OCC(O)CN2CCN(CCN3C(=O)c4cccc5cccc(c45)C3=O)CC2)c1 (stereo unspecified) |
| 4.18 µM | CN(C)CCCn1c(SCC(=O)Nc2nc(-c3cccc(Br)c3)cs2)nc2ccccc2c1=O |
| 8.72 µM | COc1ccc(C)c2sc(N(CCCN(C)C)C(=O)c3ccc(S(=O)(=O)N(C)C)cc3)nc12 |
| 3.53 µM | O=C(NCC1CCN(Cc2ccc(F)cc2)CC1)C1CCCN(c2ncnc3c2nc2n3CCCCC2)C1 (stereo unspecified) |
| > 100 µM (inactive) | Cc1cc(C)cc(OCCNC(=O)CCCCCN2C(=O)c3ccccc3C2=O)c1 |
| inactive | COc1ccc(CCNC(=O)CCCCCN2C(=O)c3ccccc3C2=O)cc1 |
| 1.63 µM | O=C(CCCCn1c(=O)c2ccccc2n(Cc2ccccc2)c1=O)NC1CCN(Cc2ccccc2)CC1 |
| 1.92 µM | O=C(NCCCN1CCN(c2ccc(F)cc2)CC1)C1CCCN(c2ncnc3c2nc2n3CCCCC2)C1 (stereo unspecified) |
| 0.93 µM | O=C(NCC1CCN(Cc2cccc(Cl)c2)CC1)C1CCCN(c2ncnc3c2nc2n3CCCCC2)C1 (stereo unspecified) |
| 2.53 µM | CN(C)CCCN(C(=O)c1ccc(S(=O)(=O)N(C)Cc2ccccc2)cc1)c1nc2cc3c(cc2s1)OCO3 |
| 4.1 µM | CCOc1cccc2sc(N(CCCN(C)C)C(=O)c3ccc(S(=O)(=O)N4CCc5ccccc5C4)cc3)nc12 |
| 2.28 µM | CC(=O)c1ccc(OCC(O)CN2CCN(CCN3C(=O)c4cccc5cccc(c45)C3=O)CC2)cc1 (stereo unspecified) |
| 9.39 µM | Cc1cc(OCC(O)CN2CCN(CCN3C(=O)c4cccc5cccc(c45)C3=O)CC2)ccc1C(C)C (stereo unspecified) |
| 0.9 µM | O=C1c2cccc3cccc(c23)C(=O)N1CCN1CCN(CC(O)COc2ccc(Cl)cc2)CC1 (stereo unspecified) |
